From patent US20260191838A1, “COMBINATIONS COMPRISING A MENIN-MLL INHIBITOR AND A BCL-2 INHIBITOR” (JANSSEN PHARMACEUTICA NV, priority 2022, published 2026)

Columns and labels:
MOLM-13 cells = assay: In vitro proliferation (Cell Titer Glo), Compound 51 with decitabine and venetoclax, MOLM-13; assay type: cell-based, human; parameters: key to maxR test call (additive / antagonism / synergy): no asterisk: absence of any asterisk indicates an additive effect; antagonism is indicated by “*”; synergy is indicated by “**”; Effect size (BIGL, HSA null model): scale not given here
Experimental: 3a) In Vitro Proliferation—Menin-MLL Inhibitor in Combination with a DNA Hypomethylating Agent (Decitabine) and a BCL2 Inhibitor (Venetoclax)
The effect of Compound 51 in combination with decitabine and venetoclax was determined in proliferation assays.
AML cell lines MOLM-13, OCI-AML3 and MV4-11 were purchased from DSMZ. MOLM-13 were grown in RPMI medium supplemented with 10% Fetal Bovine Serum (FBS) and 1% penicillin/streptomycin. MV4-11 cells were grown in IMDM medium supplemented with 10% FBS and 1% penicillin/streptomycin. OCI-AML3 cells were cultured in 80-90% alpha-MEM (without ribo- and deoxyribonucleosides)+10-20% FBS. All cell lines were cultured at 37° C. in 5% CO2 atmosphere.
AML cell lines (10×10^3 cells/well) were seeded in 96-well plates and grown for 6 days in serum (10%)-containing medium in the presence or absence of inhibitors at the indicated concentrations. Proliferation was analyzed by means of a Cell Titer Glo assay using the CellTiter 96 Aqueous One Solution Cell Proliferation Assay (Promega, Madison, WI, USA), according to the manufacturer's instructions. Data are mean with standard deviation from two to four independent experiments in technical triplicates.
R-based Biochemically Intuitive Generalized Loewe (BIGL) model implemented with a highest single agent (HSA) null model. Specifically, the BIGL methodology was applied to calculate drug-drug interactions (Van der Borght, K., Tourny, A., Bagdziunas, R. et al. BIGL: Biochemically Intuitive Generalized Loewe null model for prediction of the expected combined effect compatible with partial agonism and antagonism. Sci Rep 7, 17935 (2017); Thas, O., Tourny, A., Verbist, B., Hawinkel, S., Nazarov, M., Mutambanengwe, K., & Bijnens, L. Statistical detection of synergy: new methods and a comparative study. Pharmaceutical Statistics (2021)).
Synergy matrix results of the BIGL analysis of the cell line data with HSA as mean model calculated on the basis of the cellular metabolic activity using Cell Titer-Glo assay. Bootstrap confidence intervals are indicated. Effect sizes and their confidence intervals are shown. […] No significant average effect if zero is included in the interval.

OCI-AML3 cells = assay: Proliferation (spheroid) assay, OCI-AML3; assay type: cell-based; settings: Homo sapiens, OCI-AML-3, 192 h; 8 days; read-out: spheroid assay_OCI-AML3 IC50
Experimental: The anti-proliferative effect of menin/MLL protein/protein interaction inhibitor test compounds was assessed in human leukemia cell lines. The cell line MOLM14 harbors a MLL translocation and expresses the MLL fusion protein MLL-AF9, respectively, as well as the wildtype protein from the second allele. OCI-AML3 cells that carry the NPM1c gene mutation were also tested. […] KO-52 was used as a control cell line containing two MLL (KMT2A) wildtype alleles in order to exclude compounds that display general cytotoxic effects.
MOLM14 cells were cultured in RPMI-1640 (Sigma Aldrich) supplemented with 10% heat-inactivated fetal bovine serum (HyClone), 2 mM L-glutamine (Sigma Aldrich) and 50 μg/ml gentamycin (Gibco). KO-52 and OCI-AML3 cell lines were propagated in alpha-MEM (Sigma Aldrich) supplemented with 20% heat-inactivated fetal bovine serum (HyClone), 2 mM L-glutamine (Sigma Aldrich) and 50 μg/ml gentamycin (Gibco).
In order to assess the anti-proliferative effects, 200 MOLM14 cells, 200° C. […] Spheroid like growth was measured in real-time by live-cell imaging (IncuCyteZOOM, Essenbio, 4× objective) acquiring images at day 8. Confluence (%) as a measure of spheroid size was determined using an integrated analysis tool.
In order to determine the effect of the test compounds over time, the confluence in each well as a measure of spheroid size, was calculated. […]

[1] = Compound 51 0.05 μM, Decitabine 0.015 μM, Venetoclax 0.001 μM
[2] = Compound 51 0.05 μM, Decitabine 0.35 μM, Venetoclax 0.002 μM
[3] = Compound 51 0.1 μM, Decitabine 0.015 μM, Venetoclax 0.001 μM
[4] = Compound 51 0.1 μM, Decitabine 0.35 μM, Venetoclax 0.002 μM
[5] = Compound 51 1 μM, Decitabine 0.35 μM, Venetoclax 0.002 μM
[6] = Compound 51 10 μM, Decitabine 0.015 μM, Venetoclax 0.001 μM
[7] = Compound 51 10 μM, Decitabine 0.35 μM, Venetoclax 0.002 μM

CC(=O)N1CCC(CN2CC[C@@H](Cc3cn(-c4ccc(F)cc4C(=O)N(C)C(C)C)c4cncc(C)c34)C2)CC1 [Compound 51]
Effect size (BIGL, HSA null model) (MOLM-13 cells; Compound 51 0.001 μM, Decitabine 0.0015 μM, Venetoclax 0.0001 μM): −0.04 | Effect size (BIGL, HSA null model) (MOLM-13 cells; Compound 51 0.001 μM, Decitabine 0.015 μM, Venetoclax 0.001 μM): −0.05 | Effect size (BIGL, HSA null model) (MOLM-13 cells; Compound 51 0.001 μM, Decitabine 0.35 μM, Venetoclax 0.002 μM): 0.01 | Effect size (BIGL, HSA null model) (MOLM-13 cells; Compound 51 0.001 μM, Decitabine 1.5 μM, Venetoclax 0.02 μM): −0.04 | Effect size (BIGL, HSA null model) (MOLM-13 cells; Compound 51 0.001 μM, Decitabine 3 μM, Venetoclax 0.2 μM): −0.03 | Effect size (BIGL, HSA null model) (MOLM-13 cells; Compound 51 0.01 μM, Decitabine 0.0015 μM, Venetoclax 0.0001 μM): −0.02 | Effect size (BIGL, HSA null model) (MOLM-13 cells; Compound 51 0.01 μM, Decitabine 0.015 μM, Venetoclax 0.001 μM): −0.17 | Effect size (BIGL, HSA null model) (MOLM-13 cells; Compound 51 0.01 μM, Decitabine 0.35 μM, Venetoclax 0.002 μM): −0.1 | Effect size (BIGL, HSA null model) (MOLM-13 cells; Compound 51 0.01 μM, Decitabine 1.5 μM, Venetoclax 0.02 μM): −0.05 | Effect size (BIGL, HSA null model) (MOLM-13 cells; Compound 51 0.01 μM, Decitabine 3 μM, Venetoclax 0.2 μM): −0.03 | Effect size (BIGL, HSA null model) (MOLM-13 cells; Compound 51 0.05 μM, Decitabine 0.0015 μM, Venetoclax 0.0001 μM): −0.03 | Effect size (BIGL, HSA null model) (MOLM-13 cells; [1]): −0.18 | maxR test call (additive / antagonism / synergy) (MOLM-13 cells; [1]): ** | Effect size (BIGL, HSA null model) (MOLM-13 cells; [2]): −0.25 | maxR test call (additive / antagonism / synergy) (MOLM-13 cells; [2]): ** | Effect size (BIGL, HSA null model) (MOLM-13 cells; Compound 51 0.05 μM, Decitabine 1.5 μM, Venetoclax 0.02 μM): −0.05 | Effect size (BIGL, HSA null model) (MOLM-13 cells; Compound 51 0.05 μM, Decitabine 3 μM, Venetoclax 0.2 μM): −0.03 | Effect size (BIGL, HSA null model) (MOLM-13 cells; Compound 51 0.1 μM, Decitabine 0.0015 μM, Venetoclax 0.0001 μM): 0.01 | Effect size (BIGL, HSA null model) (MOLM-13 cells; [3]): −0.16 | maxR test call (additive / antagonism / synergy) (MOLM-13 cells; [3]): ** | Effect size (BIGL, HSA null model) (MOLM-13 cells; [4]): −0.27 | maxR test call (additive / antagonism / synergy) (MOLM-13 cells; [4]): ** | Effect size (BIGL, HSA null model) (MOLM-13 cells; Compound 51 0.1 μM, Decitabine 1.5 μM, Venetoclax 0.02 μM): −0.05 | Effect size (BIGL, HSA null model) (MOLM-13 cells; Compound 51 0.1 μM, Decitabine 3 μM, Venetoclax 0.2 μM): −0.03 | Effect size (BIGL, HSA null model) (MOLM-13 cells; Compound 51 1 μM, Decitabine 0.0015 μM, Venetoclax 0.0001 μM): 0.05 | Effect size (BIGL, HSA null model) (MOLM-13 cells; Compound 51 1 μM, Decitabine 0.015 μM, Venetoclax 0.001 μM): −0.12 | Effect size (BIGL, HSA null model) (MOLM-13 cells; [5]): −0.28 | maxR test call (additive / antagonism / synergy) (MOLM-13 cells; [5]): ** | Effect size (BIGL, HSA null model) (MOLM-13 cells; Compound 51 1 μM, Decitabine 1.5 μM, Venetoclax 0.02 μM): −0.05 | Effect size (BIGL, HSA null model) (MOLM-13 cells; Compound 51 1 μM, Decitabine 3 μM, Venetoclax 0.2 μM): −0.03 | Effect size (BIGL, HSA null model) (MOLM-13 cells; Compound 51 10 μM, Decitabine 0.0015 μM, Venetoclax 0.0001 μM): −0.05 | Effect size (BIGL, HSA null model) (MOLM-13 cells; [6]): −0.17 | maxR test call (additive / antagonism / synergy) (MOLM-13 cells; [6]): ** | Effect size (BIGL, HSA null model) (MOLM-13 cells; [7]): −0.29 | maxR test call (additive / antagonism / synergy) (MOLM-13 cells; [7]): ** | Effect size (BIGL, HSA null model) (MOLM-13 cells; Compound 51 10 μM, Decitabine 1.5 μM, Venetoclax 0.02 μM): −0.05 | Effect size (BIGL, HSA null model) (MOLM-13 cells; Compound 51 10 μM, Decitabine 3 μM, Venetoclax 0.2 μM): −0.03 | combination effect on proliferation (in words) (MOLM-13 cells; pairwise matrix of decitabine and Compound 51 in the presence of Venetoclax, MOLM-13, 6-day CellTiter-Glo): synergistically cytotoxic | IC50 (OCI-AML3 cells): 24 nM
